# Measured values from ChEMBL document CHEMBL1201862, “PubChem BioAssay data set” (2004).
# Active and inactive are the calls of the source.
# Experiments:
# Ion channel NompC = Ion channel NompC (Danio rerio, UniProt Q7T1G6); assay: Fluorescence counterscreen assay for TRPML3 agonists: dose response cell-based high-throughput screening assay to identify agonists of the transient receptor potential channel N1 (TRPN1). [Related pubchem assays: 1526, 1424, 1448 ]; assay type: functional
# Mucolipin-3 = target: T1, Mucolipin-3 (Homo sapiens, UniProt Q8TDD5); assay: Dose response cell-based high-throughput screening assay for agonists of the transient receptor potential channel ML3 (TRPML3). [Related pubchem assays: 1526, 1424, 1448 ]; assay type: functional
# T1 sequence (Q8TDD5 whole entry): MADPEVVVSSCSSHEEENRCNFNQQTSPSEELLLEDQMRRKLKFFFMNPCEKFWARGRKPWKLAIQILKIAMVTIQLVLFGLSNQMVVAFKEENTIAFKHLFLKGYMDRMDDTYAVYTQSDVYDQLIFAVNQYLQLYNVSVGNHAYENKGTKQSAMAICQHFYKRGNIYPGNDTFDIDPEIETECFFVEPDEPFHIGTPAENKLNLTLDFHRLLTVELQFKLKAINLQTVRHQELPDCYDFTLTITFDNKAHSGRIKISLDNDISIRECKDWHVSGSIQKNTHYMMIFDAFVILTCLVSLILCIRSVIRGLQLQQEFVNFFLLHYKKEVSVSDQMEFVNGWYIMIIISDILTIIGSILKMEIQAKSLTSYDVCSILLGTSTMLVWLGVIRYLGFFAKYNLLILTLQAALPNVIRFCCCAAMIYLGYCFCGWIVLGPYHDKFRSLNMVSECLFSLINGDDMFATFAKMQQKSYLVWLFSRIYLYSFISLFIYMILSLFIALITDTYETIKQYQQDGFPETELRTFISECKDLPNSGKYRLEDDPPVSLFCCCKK
# [1] = target: Peroxisome proliferator-activated receptor gamma/Nuclear receptor coactivator 2 (Homo sapiens, UniProt P37231); assay type: functional;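 further: agonist potency for raising coactivator recruitment to the receptor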
# [2] = target: Peroxisome proliferator-activated receptor gamma/Nuclear receptor coactivator 3 (Homo sapiens, UniProt P37231); assay type: functional;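 further: agonist potency for raising coactivator recruitment to the receptor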
# Peroxisome proliferator-activated receptor gamma/Nuclear receptor coactivator 3, sequence (P37231 whole entry): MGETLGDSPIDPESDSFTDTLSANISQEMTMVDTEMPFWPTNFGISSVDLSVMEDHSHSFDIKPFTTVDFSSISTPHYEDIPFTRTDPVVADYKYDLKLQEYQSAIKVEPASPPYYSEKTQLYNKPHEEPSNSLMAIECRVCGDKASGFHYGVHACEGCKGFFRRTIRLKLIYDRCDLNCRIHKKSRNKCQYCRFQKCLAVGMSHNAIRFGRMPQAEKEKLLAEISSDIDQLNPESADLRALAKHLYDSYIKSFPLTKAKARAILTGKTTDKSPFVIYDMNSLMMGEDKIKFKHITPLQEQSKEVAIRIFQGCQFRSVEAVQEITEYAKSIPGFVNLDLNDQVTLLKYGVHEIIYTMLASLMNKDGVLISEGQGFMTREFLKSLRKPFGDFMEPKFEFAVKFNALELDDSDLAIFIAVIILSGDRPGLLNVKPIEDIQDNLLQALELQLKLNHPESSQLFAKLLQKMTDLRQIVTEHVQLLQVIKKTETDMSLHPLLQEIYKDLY
# Peroxisome proliferator-activated receptor gamma/Nuclear receptor coactivator 3, sequence (Q9Y6Q9 whole entry, further chain): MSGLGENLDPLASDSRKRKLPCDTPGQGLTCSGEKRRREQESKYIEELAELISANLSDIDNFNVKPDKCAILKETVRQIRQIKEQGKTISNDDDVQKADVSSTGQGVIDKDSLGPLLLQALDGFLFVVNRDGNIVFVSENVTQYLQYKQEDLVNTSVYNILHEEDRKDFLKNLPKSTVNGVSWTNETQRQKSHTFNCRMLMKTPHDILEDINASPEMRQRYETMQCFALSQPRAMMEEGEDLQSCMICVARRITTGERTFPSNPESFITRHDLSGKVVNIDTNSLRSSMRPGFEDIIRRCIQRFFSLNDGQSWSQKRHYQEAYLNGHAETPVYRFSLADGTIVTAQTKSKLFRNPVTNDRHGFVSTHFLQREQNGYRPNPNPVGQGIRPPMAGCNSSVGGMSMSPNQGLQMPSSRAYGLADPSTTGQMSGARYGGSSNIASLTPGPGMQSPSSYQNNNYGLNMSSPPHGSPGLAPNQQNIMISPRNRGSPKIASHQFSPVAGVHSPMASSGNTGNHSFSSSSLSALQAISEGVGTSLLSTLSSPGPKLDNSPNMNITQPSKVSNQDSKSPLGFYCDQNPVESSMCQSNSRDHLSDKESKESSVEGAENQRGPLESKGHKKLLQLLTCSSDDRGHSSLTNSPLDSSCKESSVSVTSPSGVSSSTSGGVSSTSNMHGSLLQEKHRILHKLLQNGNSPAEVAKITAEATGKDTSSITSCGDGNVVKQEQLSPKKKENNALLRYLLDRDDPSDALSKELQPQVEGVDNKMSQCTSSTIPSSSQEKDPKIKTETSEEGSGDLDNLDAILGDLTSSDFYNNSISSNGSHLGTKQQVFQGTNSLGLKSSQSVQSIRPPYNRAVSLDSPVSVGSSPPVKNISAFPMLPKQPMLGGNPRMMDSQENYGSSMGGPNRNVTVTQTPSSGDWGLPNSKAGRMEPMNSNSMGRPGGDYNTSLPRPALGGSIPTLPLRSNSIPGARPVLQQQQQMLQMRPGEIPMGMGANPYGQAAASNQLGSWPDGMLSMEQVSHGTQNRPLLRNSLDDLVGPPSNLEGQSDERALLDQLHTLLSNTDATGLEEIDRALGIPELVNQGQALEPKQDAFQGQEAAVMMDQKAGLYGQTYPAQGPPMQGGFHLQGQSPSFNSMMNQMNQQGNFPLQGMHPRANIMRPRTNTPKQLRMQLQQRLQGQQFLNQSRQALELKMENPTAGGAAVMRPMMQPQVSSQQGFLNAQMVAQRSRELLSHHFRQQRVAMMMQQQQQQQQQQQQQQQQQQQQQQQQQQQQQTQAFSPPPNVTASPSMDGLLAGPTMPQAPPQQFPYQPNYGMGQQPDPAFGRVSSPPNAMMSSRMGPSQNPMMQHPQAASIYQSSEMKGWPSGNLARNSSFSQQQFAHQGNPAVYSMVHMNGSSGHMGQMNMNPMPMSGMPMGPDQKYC
# [3] = target: Peroxisome proliferator-activated receptor gamma/Nuclear receptor coactivator 1 (Homo sapiens, UniProt P37231); assay type: functional;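 further: agonist potency as compounds enhance coactivator SRC-1 recruitment to PPARgamma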
# Peroxisome proliferator-activated receptor gamma/Nuclear receptor coactivator 1, sequence (P37231 whole entry): as the sequence (P37231 whole entry) above
# Peroxisome proliferator-activated receptor gamma/Nuclear receptor coactivator 1, sequence (Q15788 whole entry, further chain): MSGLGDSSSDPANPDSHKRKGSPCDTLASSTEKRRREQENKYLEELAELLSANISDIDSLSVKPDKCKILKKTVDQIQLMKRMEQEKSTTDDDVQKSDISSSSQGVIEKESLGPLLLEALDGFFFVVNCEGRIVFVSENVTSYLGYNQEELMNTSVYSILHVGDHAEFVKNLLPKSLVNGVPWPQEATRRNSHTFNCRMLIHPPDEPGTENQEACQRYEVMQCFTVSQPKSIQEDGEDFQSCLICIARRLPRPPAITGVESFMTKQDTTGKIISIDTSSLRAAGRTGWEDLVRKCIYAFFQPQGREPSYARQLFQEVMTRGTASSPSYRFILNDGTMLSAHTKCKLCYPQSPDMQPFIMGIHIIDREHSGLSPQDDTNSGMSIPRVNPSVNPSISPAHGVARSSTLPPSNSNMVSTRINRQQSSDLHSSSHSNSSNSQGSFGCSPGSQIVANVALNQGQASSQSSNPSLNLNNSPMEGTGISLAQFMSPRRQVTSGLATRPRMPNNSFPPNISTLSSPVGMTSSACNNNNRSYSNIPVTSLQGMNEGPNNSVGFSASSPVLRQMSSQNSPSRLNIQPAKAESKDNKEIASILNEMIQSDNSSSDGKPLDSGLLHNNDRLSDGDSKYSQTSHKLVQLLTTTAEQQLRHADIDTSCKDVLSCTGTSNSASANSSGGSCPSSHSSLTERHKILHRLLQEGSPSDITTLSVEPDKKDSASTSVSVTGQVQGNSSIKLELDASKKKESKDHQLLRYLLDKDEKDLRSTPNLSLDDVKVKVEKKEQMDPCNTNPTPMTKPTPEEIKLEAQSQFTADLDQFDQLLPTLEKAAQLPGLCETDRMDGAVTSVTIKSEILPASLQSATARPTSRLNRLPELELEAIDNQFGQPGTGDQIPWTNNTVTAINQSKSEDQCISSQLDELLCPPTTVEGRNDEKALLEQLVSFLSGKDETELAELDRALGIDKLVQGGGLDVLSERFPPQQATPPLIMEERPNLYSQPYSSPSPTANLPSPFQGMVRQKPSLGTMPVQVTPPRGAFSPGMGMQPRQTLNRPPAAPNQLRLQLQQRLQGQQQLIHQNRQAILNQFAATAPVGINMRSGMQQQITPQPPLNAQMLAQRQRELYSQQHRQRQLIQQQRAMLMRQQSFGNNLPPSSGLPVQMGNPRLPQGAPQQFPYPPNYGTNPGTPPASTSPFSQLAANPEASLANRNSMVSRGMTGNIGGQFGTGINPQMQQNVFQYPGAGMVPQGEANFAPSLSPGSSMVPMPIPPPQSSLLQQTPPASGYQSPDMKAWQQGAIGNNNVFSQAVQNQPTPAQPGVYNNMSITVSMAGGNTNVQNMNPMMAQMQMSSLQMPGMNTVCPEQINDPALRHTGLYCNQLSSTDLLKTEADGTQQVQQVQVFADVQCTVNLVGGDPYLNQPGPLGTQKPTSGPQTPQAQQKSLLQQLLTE
# [4] = target: Glyceraldehyde-3-phosphate dehydrogenase (Homo sapiens, UniProt P04406)
# Glyceraldehyde-3-phosphate dehydrogenase, sequence (P04406 whole entry): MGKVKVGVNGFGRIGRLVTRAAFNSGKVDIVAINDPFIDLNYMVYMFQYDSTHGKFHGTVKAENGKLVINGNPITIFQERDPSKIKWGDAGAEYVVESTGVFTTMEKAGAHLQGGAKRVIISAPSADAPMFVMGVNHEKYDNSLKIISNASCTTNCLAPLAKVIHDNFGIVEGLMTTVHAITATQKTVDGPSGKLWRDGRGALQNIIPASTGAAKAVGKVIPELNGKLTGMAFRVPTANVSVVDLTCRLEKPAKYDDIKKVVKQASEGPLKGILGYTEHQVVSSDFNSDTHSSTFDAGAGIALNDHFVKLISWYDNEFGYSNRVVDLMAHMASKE
# [5] = target: T2, Sentrin-specific protease 8 (Homo sapiens, UniProt Q96LD8); assay type: functional;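 further: luminescence read-out of SENP8 inhibition, dose-response confirmation following an ultra-high-throughput screen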
# T2 sequence (Q96LD8 whole entry): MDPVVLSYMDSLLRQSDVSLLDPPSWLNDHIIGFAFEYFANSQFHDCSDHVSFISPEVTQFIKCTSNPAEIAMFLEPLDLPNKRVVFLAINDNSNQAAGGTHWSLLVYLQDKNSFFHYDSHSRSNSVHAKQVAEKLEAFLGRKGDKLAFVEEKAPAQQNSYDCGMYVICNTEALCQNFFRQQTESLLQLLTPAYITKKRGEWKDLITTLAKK
# [6] = target: T3, Sentrin-specific protease 7 (Homo sapiens, UniProt Q9BQF6); assay type: functional;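 further: Luminescence-based dose-response confirmation of ultra-high-throughput screening hits, measuring inhibition of SENP7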
# T3 sequence (Q9BQF6 whole entry): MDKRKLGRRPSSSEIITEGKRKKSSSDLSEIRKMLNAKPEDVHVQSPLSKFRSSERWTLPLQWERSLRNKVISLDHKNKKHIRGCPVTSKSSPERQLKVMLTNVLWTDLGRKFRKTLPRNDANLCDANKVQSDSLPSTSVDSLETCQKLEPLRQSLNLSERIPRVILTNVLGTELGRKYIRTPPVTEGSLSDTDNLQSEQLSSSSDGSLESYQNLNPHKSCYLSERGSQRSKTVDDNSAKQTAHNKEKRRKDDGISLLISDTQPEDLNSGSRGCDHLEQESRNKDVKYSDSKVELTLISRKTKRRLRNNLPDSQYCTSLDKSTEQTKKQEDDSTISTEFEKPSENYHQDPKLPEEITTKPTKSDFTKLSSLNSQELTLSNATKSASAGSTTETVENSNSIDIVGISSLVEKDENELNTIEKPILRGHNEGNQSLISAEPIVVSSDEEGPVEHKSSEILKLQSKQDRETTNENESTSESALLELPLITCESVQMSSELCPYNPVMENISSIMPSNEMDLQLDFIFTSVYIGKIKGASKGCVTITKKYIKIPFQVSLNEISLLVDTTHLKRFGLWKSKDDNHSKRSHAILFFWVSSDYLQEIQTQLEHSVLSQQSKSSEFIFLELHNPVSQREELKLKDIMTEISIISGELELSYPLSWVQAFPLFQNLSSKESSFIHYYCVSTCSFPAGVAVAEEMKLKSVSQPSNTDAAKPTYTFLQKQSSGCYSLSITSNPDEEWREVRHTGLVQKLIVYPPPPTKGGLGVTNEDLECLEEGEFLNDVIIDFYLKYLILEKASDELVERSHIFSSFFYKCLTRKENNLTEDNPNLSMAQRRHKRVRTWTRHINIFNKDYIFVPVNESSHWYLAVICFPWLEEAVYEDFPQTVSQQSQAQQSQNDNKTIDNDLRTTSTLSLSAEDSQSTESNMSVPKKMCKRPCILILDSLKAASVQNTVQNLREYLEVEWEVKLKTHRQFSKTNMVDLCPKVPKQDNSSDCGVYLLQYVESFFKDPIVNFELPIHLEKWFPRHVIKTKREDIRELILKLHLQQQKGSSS
# [7] = target: T4, Sentrin-specific protease 6 (Homo sapiens, UniProt Q9GZR1); assay type: functional;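 further: Luminescence-based dose-response confirmatory assay of SENP6 inhibition, following up an ultra-high-throughput screen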
# T4 sequence (Q9GZR1 whole entry): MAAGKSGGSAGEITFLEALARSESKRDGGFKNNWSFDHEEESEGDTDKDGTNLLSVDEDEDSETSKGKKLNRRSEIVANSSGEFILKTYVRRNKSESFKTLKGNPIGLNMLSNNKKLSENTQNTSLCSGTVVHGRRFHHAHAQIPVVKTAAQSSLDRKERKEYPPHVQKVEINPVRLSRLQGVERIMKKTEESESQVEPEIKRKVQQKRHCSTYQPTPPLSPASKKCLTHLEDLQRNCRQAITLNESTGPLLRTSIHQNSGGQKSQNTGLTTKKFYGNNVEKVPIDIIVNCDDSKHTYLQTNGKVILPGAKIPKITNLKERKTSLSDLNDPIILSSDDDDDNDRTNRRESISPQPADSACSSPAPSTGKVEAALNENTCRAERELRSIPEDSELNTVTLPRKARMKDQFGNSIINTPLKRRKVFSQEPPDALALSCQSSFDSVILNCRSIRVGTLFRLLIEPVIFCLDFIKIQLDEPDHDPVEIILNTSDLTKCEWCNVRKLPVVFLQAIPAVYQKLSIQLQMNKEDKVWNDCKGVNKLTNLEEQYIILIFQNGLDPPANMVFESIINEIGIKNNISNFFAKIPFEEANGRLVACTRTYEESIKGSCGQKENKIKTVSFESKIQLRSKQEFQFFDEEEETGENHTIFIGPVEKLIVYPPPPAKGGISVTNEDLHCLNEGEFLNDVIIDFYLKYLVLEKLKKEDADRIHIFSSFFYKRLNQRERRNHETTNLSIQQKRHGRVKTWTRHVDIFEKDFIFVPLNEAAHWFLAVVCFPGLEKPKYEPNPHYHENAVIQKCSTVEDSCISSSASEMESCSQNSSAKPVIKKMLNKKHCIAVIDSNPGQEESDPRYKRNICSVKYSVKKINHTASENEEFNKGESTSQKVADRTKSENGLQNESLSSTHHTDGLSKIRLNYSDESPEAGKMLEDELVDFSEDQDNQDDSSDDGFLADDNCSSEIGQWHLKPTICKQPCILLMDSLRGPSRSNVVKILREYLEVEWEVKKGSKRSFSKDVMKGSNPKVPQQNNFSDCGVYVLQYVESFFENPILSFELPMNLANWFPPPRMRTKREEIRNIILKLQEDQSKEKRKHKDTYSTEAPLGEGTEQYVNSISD
# Caspase-3 = target: T5, Caspase-3 (Homo sapiens, UniProt P42574); assay type: functional;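 further: Dose-response selectivity test against caspase-3 for candidate inhibitors of sentrin-specific proteases (SENPs)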
# T5 sequence (P42574 whole entry): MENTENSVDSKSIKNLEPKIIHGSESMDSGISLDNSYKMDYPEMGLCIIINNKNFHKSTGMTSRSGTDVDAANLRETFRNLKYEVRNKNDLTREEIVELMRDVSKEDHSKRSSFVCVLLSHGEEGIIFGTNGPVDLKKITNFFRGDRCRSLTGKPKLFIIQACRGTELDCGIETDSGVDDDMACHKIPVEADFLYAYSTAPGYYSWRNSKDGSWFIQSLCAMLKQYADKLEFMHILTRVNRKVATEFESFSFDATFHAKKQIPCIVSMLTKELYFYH
# Prothrombin = Prothrombin (Homo sapiens, UniProt P00734); assay: Thrombin 1536 HTS Dose Response Confirmation. [Related pubchem assays: 1046 (Thrombin 1536 HTS; hits were confirmed in this assay)]; assay type: functional
# [8] = cytotoxicity toward DRD oncogenic fibroblasts, dose response, cell-based, non-viral oncogenic, luminescence (AID 1934); assay type: functional; settings: Homo sapiens
# [9] = luciferase reporter signal reduction – luminescence, H4-C neuroglioblastoma cells, dose response (AID 2458); assay type: functional, cell-based;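 further: H4 neuroglioblastoma cells stably carrying a luciferase reporter gene fusion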
# [10] = inhibitors of SNCA 5'UTR-driven translation, confirmation, luminescence, H4 neuroglioblastoma cells, dose confirmation (AID 2454); assay type: functional, cell-based;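 further: H4 neuroglioblastoma cells carrying an alpha-synuclein 5'UTR luciferase reporter; potency for inhibition of the luciferase signal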
# BJ [11] = assay: cytotoxicity toward BJ-TERT-LT-ST fibroblasts, dose response, cell-based, RAS-independent, luminescence (AID 1935); assay type: functional; settings: Homo sapiens;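 further: BJ fibroblasts immortalized with TERT plus LT and ST oncogenes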
# [12] = cytotoxicity in HEK-293T cells, dose response, cytotoxicity control for TCR NF-kB inhibitor project, luminescence, T-cell screen hits (AID 489026); assay type: functional, cell-based;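 further: cells exposed to compound about 14 hours before the viability readout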
# BJ [13] = assay: cells; assay type: functional, cell-based; settings: Homo sapiens
# cells = assay type: functional, cell-based
# [14] = inhibitors of firefly luciferase expression or activity, dose response, H4 neuroglioma cells, luminescence (AID 1990); assay type: functional, cell-based
# [15] = inhibitors of SNCA 5'UTR-driven reporter translation, confirmation, H4 neuroglioma cells, luminescence (AID 1988); assay type: functional, cell-based
# [16] = Luminescence Cell-Based Dose Response HTS to Identify Inhibitors of 5'UTR Stem-Loop Driven Prion Protein mRNA Translation in H4 Neuroglioblastoma Cells. [Related pubchem assays: 1827 (Project Summary), 1813 (Primary HTS)]; assay type: functional
# BJ [17] = assay: cytotoxicity toward BJ-TERT fibroblasts, dose response, cell-based, RAS-independent, luminescence (AID 1933); assay type: functional; settings: Homo sapiens
# [18] = target: T6, Mannose-6-phosphate isomerase (Homo sapiens, UniProt P34949); assay: inhibitors of human PMI, primary screen, biochemical, fluorescence intensity, coupled assay (AID 1209)
# T6 sequence (P34949 whole entry): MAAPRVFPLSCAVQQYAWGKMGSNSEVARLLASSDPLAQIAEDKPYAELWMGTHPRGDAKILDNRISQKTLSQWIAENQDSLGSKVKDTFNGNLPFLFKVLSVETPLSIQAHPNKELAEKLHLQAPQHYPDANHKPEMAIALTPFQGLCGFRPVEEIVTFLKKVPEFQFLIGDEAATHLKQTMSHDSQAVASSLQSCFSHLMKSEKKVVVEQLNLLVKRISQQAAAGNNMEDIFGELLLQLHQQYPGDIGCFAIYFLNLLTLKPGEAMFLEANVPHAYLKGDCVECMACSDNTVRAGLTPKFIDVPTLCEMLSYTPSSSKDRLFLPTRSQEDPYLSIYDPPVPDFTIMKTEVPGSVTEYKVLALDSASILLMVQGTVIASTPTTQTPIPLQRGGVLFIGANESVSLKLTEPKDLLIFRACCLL
# [19] = A Cell Based Secondary Assay To Explore Cytotoxicity of Compounds that Sensitize Mycobacterium Tuberculosis to Beta-Lactam Antibiotics.; assay type: functional
structure (smiles),measurement,setting,value
CN(C)S(=O)(=O)N1CCN(c2cc(Cl)ccc2Cl)CC1,EC50,Ion channel NompC,> 29.9 µM (not active)
same,EC50,Mucolipin-3,26.5 µM (not active)
N#Cc1ccc(/C=N/NC(=N)N)cc1,EC50,[1],> 79.4 µM (not active)
same,EC50,[2],> 79.4 µM (not active)
same,EC50,[3],> 79.4 µM (not active)
Cc1cccc(N2C(=O)C(Cl)=C(N3CCN(Cc4ccccc4)CC3)C2=O)c1,IC50,[4],> 50 µM (inconclusive)
Cc1cccc(C(=O)Nc2sc(C)c(-c3ccccc3)c2C#N)c1,IC50,[5],> 100 µM (inactive)
same,IC50,[6],7.15 µM (active)
same,IC50,[7],> 100 µM (inactive)
same,IC50,Caspase-3,38.5 µM (active)
same,IC50,Prothrombin,> 50 µM (not active)
C=CCOC(=O)c1[nH]c2c(c1C)C(=O)CC(c1ccco1)C2 (stereo not drawn),EC50,[8],0.374 µM (active)
same,EC50,[9],0.598 µM (active)
same,EC50,[10],0.822 µM (active)
same,EC50,BJ [11],0.346 µM (inconclusive)
same,IC50,[12],> 80 µM (inactive)
same,EC50,BJ [13],29.1 µM (inconclusive)
same,EC50,cells,1.29 µM (active)
same,EC50,[14],0.257 µM (active)
same,EC50,[15],< 0.1 µM (active)
same,EC50,[16],0.19 µM (active)
same,EC50,BJ [17],0.377 µM (inconclusive)
CCCC(=O)Oc1c(S(=O)(=O)c2ccc(C)cc2)c(C)nn1C(C)(C)C,EC50,Ion channel NompC,> 29.9 µM (not active)
same,EC50,Mucolipin-3,2.31 µM (active)
Cc1ccc(N2C(=O)CC(Sc3nc[nH]n3)C2=O)cc1C (stereo not drawn),IC50,[18],> 50 µM (not active)
COc1ccc(C(=O)/N=c2\sc3ccccc3n2C)cc1OC,EC50,[1],> 79.4 µM (not active)
same,EC50,[2],> 79.4 µM (not active)
same,EC50,[3],> 79.4 µM (not active)
COc1cccc(/C=N/NC(=O)c2csc(-n3nc(C)cc3C(F)(F)F)n2)c1,EC50,[1],> 79.4 µM (not active)
same,EC50,[2],> 79.4 µM (not active)
same,EC50,[3],> 79.4 µM (not active)
CCN(C1CCCCC1)S(=O)(=O)c1cc(C)ccc1OC,EC50,Ion channel NompC,> 29.9 µM (not active)
same,EC50,Mucolipin-3,3.39 µM (active)
O=C1COc2ccc(C(=O)/C=C/c3ccccc3)cc2N1,CC50,[19],21.5 µM (active)
CSc1ccccc1NC(=O)Cn1c(-c2cscn2)nc2ccccc21,EC50,[1],> 79.4 µM (not active)
same,EC50,[2],> 79.4 µM (not active)
same,EC50,[3],> 79.4 µM (not active)
O=C(c1cc(-c2cc(F)c(Cl)cc2Cl)n[nH]1)N(CCO)CCO,IC50,[4],> 10 µM (inconclusive)
CCC(C)Nc1nc(N)c([N+](=O)[O-])c(NC2CCCCC2)n1 (stereo not drawn),EC50,[9],> 12 µM (not active)
same,EC50,[10],> 12 µM (not active)
same,EC50,cells,> 12 µM (not active)
same,EC50,[14],13.2 µM (active)
same,EC50,[15],9.77 µM (active)
same,EC50,[16],< 0.1 µM (active)
CCC(Oc1cc(Cl)ccc1Cl)C(=O)NN1C(=O)C2C3CCC(C3=C(C)C)C2C1=O (stereo not drawn),EC50,Ion channel NompC,23.7 µM (not active)
same,EC50,Mucolipin-3,3.99 µM (active)
O=c1[nH]c(/C=C/c2cccc(Br)c2)nc2ccccc12,CC50,[19],33.4 µM (active)
N#Cc1ccccc1/C=N/Nc1nc(-c2ccccc2)c2cc(Br)ccc2n1,CC50,[19],> 40 µM (active)
